Columns and labels:
Test in all cases: relative viability (nuclei count vs DMSO), 5 days (fraction); higher = more cells survive
[1] = compound: CS(=O)(=O)c1ccc(-c2cnc(N)c(C(=O)Nc3ccccc3)n2)cc1 [VE-821] + Cc1nc(Nc2ncc(C(=O)Nc3c(C)cccc3Cl)s2)cc(N2CCN(CCO)CC2)n1 [Dasatinib] (partner 0.075 µM)
Method in brief: (§1)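 For relative viability, nuclei counts in treated wells were divided by those in vehicle wells. Lung cancer cell lines had been pin-tool dosed in 1536-well plates the day after seeding and cultured for 5 days, then fixed and stained in one step (final 0.05% Triton X-100, 1% formaldehyde, 1 ug/ml Hoechst) and imaged at 4×. Doses were one drug alone or a fixed anchor-drug dose plus five library-drug doses (not always all listed) in √10 steps, and values are duplicate-plate medians.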

[2] = compound: CS(=O)(=O)c1ccc(-c2cnc(N)c(C(=O)Nc3ccccc3)n2)cc1 [VE-821] + NC(=O)Nc1cc(-c2cccc(F)c2)sc1C(=O)N[C@H]1CCCNC1 [AZD7762] (partner 0.2 µM)
Method in brief: as §1

[3] = compound: CS(=O)(=O)c1ccc(C(=O)Nc2ccc(Cl)c(-c3ccccn3)c2)c(Cl)c1 [Vismodegib] + NC(=O)Nc1cc(-c2cccc(F)c2)sc1C(=O)N[C@H]1CCCNC1 [AZD7762] (partner 0.2 µM)
Method in brief: as §1

[4] = compound: N#CC[C@H](C1CCCC1)n1cc(-c2ncnc3[nH]ccc23)cn1 [Ruxolitinib] + O=C(c1cc(Cc2n[nH]c(=O)c3ccccc23)ccc1F)N1CCN(C(=O)C2CC2)CC1 [Olaparib] (partner 8 µM)
Method in brief: as §1

Row | Cell Line | relative viability ([1]; first compound 0.08 µM) | relative viability ([1]; first compound 0.253 µM) | relative viability ([1]; first compound 0.8 µM) | relative viability ([1]; first compound 2.53 µM) | relative viability ([1]; first compound 8 µM) | relative viability ([2]; first compound 0.08 µM) | relative viability ([2]; first compound 0.253 µM) | relative viability ([2]; first compound 2.53 µM) | relative viability ([2]; first compound 8 µM) | relative viability ([3]; first compound 0.253 µM) | relative viability ([3]; first compound 0.8 µM) | relative viability ([3]; first compound 2.53 µM) | relative viability ([3]; first compound 8 µM) | relative viability ([4]; first compound 0.08 µM) | relative viability ([4]; first compound 0.253 µM) | relative viability ([4]; first compound 0.8 µM) | relative viability ([4]; first compound 2.53 µM) | relative viability ([4]; first compound 8 µM) | relative viability ([2]; first compound 0.8 µM) | relative viability ([3]; first compound 0.08 µM)
1 | NCI-H1793 | 0.376 | 0.371 | 0.437 | 0.427 | 0.386 | 0.381 | 0.267 | 0.252 | 0.214 | 0.569 | 0.409 | 0.389 | 0.327 | 0.769 | 0.8 | 1.07 | 0.89 | 0.706 |  | 
2 | HCC-78 | 0.453 | 0.281 | 0.376 | 0.432 | 0.33 | 0.679 | 0.626 | 0.58 | 0.392 | 0.605 | 0.544 | 0.542 | 0.634 | 0.779 | 0.872 | 0.897 | 0.866 | 0.934 | 0.5 | 0.575
3 | ChaGo-K-1 | 0.553 | 0.525 | 0.582 | 0.62 | 0.418 | 0.884 | 0.729 | 0.747 | 0.48 | 0.873 | 0.753 | 0.857 | 0.97 | 0.42 | 0.445 | 0.379 | 0.347 | 0.319 | 0.866 | 0.886
4 | LCLC-97TM1 | 1.1 | 0.763 | 0.756 | 0.838 | 0.639 | 0.162 | 0.137 | 0.116 | 0.133 | 0.262 | 0.327 | 0.297 | 0.286 | 0.367 | 0.292 | 0.331 | 0.417 | 0.295 | 0.204 | 0.292
5 | NCI-H1944 | 0.22 | 0.213 | 0.185 | 0.27 | 0.228 | 0.527 | 0.402 | 0.277 | 0.121 | 0.557 | 0.408 |  | 0.505 | 0.431 | 0.426 | 0.428 | 0.399 | 0.448 | 0.296 | 0.492
6 | NCI-H1975 | 0.372 | 0.287 |  | 0.278 | 0.253 | 0.75 | 0.69 | 0.604 | 0.462 | 0.649 | 0.642 | 0.729 | 0.631 | 0.854 | 0.786 | 0.716 | 0.675 | 0.421 | 0.667 | 0.689
7 | EPLC-272H | 0.341 | 0.325 | 0.418 | 0.41 | 0.219 | 0.163 | 0.149 | 0.188 | 0.127 | 0.166 | 0.304 | 0.163 | 0.257 | 0.829 | 0.922 | 0.818 | 0.544 | 0.344 | 0.2 | 0.3
8 | EMC-BAC-2 | 0.349 | 0.316 | 0.346 | 0.342 | 0.275 | 1.15 | 1.02 | 1.19 | 0.587 | 1.1 | 1.06 | 1.07 | 1.08 | 0.465 | 0.482 | 0.478 | 0.478 | 0.406 | 1.12 | 1.16

Reference: the supplement of paper PMC10307832
